The assay can be described thus: Inhibition of HCV NS3 serine protease. The arrangement: species or system Hepacivirus hominis.

For `O=C(OC[C@H]1O[C@@H](OC(=O)c2cc(O)c(O)c(O)c2)[C@H](O)[C@@H](OC(=O)c2cc(O)c(O)c(O)c2)[C@@H]1O)c1cc(O)c(O)c(O)c1`, half-maximal inhibition (IC50) was put at 10.1 µM. The same measure for `O=C(O[C@@H]1O[C@H](CO)[C@@H](OC(=O)c2cc(O)c(O)c(O)c2)[C@H](OC(=O)c2cc(O)c(O)c(O)c2)[C@H]1O)c1cc(O)c(O)c(O)c1`: 1 µM; for `O=C(Oc1c(O)cc(C(=O)O[C@H]2[C@H](OC(=O)c3cc(O)c(O)c(O)c3)O[C@H](CO)[C@@H](OC(=O)c3cc(O)c(O)c(O)c3)[C@@H]2OC(=O)c2cc(O)c(O)c(O)c2)cc1O)c1cc(O)c(O)c(O)c1`: 0.66 µM; for `O=C(Oc1cc(C(=O)O[C@@H]2O[C@H](CO)[C@@H](OC(=O)c3cc(O)c(O)c(O)c3)[C@H](OC(=O)c3cc(O)c(O)c(O)c3)[C@H]2OC(=O)c2cc(O)c(O)c(O)c2)cc(O)c1O)c1cc(O)c(O)c(O)c1`: 0.68 µM. The same measure for `O=C(OC[C@H]1O[C@@H](O)[C@H](O)[C@@H](OC(=O)c2cc(O)c(O)c(O)c2)[C@@H]1O)c1cc(O)c(O)c(O)c1`: 950 µM.

One may read the IC50 as the point on the concentration scale where inhibition reaches its midpoint.

These data come from ChEMBL document CHEMBL1144525, “Prediction of binding for a kind of non-peptic HCV NS3 serine protease inhibitors from plants by molecular docking and MM-PBSA method” (Bioorg Med Chem, 2007).
